Measurements taken from ChEMBL document CHEMBL2321689, “Design, synthesis and evaluation of novel heterodimers of donepezil and huperzine fragments as acetylcholinesterase inhibitors” (Bioorg Med Chem, 2013).
Calls of active or inactive are those of the source. The calls are words filed in the database; no cut-off is given here.

Columns and labels:
Acetylcholinesterase = target: T1, Acetylcholinesterase (Rattus norvegicus, UniProt P37136)
T1 sequence (P37136 whole entry): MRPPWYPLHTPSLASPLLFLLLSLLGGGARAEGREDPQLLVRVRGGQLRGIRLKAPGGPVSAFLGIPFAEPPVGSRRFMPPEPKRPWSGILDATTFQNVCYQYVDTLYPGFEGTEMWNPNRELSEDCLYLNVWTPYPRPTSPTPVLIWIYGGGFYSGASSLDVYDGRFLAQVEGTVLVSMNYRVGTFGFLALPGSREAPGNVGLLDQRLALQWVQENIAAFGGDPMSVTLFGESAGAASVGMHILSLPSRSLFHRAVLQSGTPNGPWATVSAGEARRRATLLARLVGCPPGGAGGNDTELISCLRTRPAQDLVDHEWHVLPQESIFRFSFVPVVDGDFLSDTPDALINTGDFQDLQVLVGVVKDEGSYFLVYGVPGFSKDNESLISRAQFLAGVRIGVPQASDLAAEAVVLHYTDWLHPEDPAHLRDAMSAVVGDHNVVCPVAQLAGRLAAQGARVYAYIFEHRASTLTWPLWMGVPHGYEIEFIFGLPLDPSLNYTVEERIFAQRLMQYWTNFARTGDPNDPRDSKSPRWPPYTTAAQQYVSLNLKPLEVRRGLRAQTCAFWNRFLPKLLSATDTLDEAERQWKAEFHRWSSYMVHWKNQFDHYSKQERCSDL
Description: Inhibition of AChE in Sprague-Dawley rat cortices using acetylthiocholine iodide as substrate by Ellman's method

tissue or blood = details: Rattus norvegicus, Sprague-Dawley, Serum
Description: Inhibition of BuChE in Sprague-Dawley rat serum by Ellman's method

Rattus norvegicus = species: Rattus norvegicus; assay: Inhibition of BuChE in Sprague-Dawley rat serum at 1 mM by Ellman's method; type: cell-free

Compound | IC50 (Acetylcholinesterase) [µM] | IC50 (tissue or blood) [µM] | inhibition (Rattus norvegicus)
COc1ccc(C(=O)NCCCN[C@H]2CCCc3[nH]c(=O)ccc32)cc1OC | 88 | 139 | –
COc1cc2c(cc1OC)C(=O)C(CCCCCCCN[C@H]1CCCc3[nH]c(=O)ccc31)C2 (mixture of isomers) | 1.86 | 413 | –
COc1ccc(C(=O)OCCCCCCCCCN[C@H]2CCCc3[nH]c(=O)ccc32)cc1OC | 9.67 | 308 | –
COc1cc2c(cc1OC)C(=O)C(CCCCCN[C@H]1CCCc3[nH]c(=O)ccc31)C2 (mixture of isomers) | 0.187 | – | inactive
COc1cc2c(cc1OC)C(=O)C(CCCCCCN[C@H]1CCCc3[nH]c(=O)ccc31)C2 (mixture of isomers) | 0.037 | – | inactive
COc1cc2c(cc1OC)C(=O)C(CCCN[C@H]1CCCc3[nH]c(=O)ccc31)C2 (mixture of isomers) | 41 | – | inactive
COc1ccc(C(=O)NCCCCCN[C@H]2CCCc3[nH]c(=O)ccc32)cc1OC | 12 | 33 | –
COc1ccc(OCCCCCN[C@H]2CCCc3[nH]c(=O)ccc32)cc1OC | 0.59 | 42 | –
COc1ccc(C(=O)OCCCCCN[C@H]2CCCc3[nH]c(=O)ccc32)cc1OC | 7.2 | 460 | –
COc1ccc(C(=O)OCCCCCCCN[C@H]2CCCc3[nH]c(=O)ccc32)cc1OC | 8.2 | 194 | –
COc1ccc(C(=O)OCCCCN[C@H]2CCCc3[nH]c(=O)ccc32)cc1OC | 4.1 | 15 | –
COc1cc2c(cc1OC)C(=O)C(CCCCN[C@@H]1CCCc3[nH]c(=O)ccc31)C2 (mixture of isomers) | 0.53 | – | inactive
COc1ccc(OCCCCCCN[C@H]2CCCc3[nH]c(=O)ccc32)cc1OC | 3.95 | 17.7 | –
COc1ccc(C(=O)OCCCN[C@H]2CCCc3[nH]c(=O)ccc32)cc1OC | 162 | 860 | –
COc1cc2c(cc1OC)C(=O)C(CCCCN[C@H]1CCCc3[nH]c(=O)ccc31)C2 (mixture of isomers) | 0.009 | – | inactive
COc1cc2c(cc1OC)C(=O)C(CCCCCCCCCN[C@H]1CCCc3[nH]c(=O)ccc31)C2 (mixture of isomers) | 2.6 | 678 | –
C/C=C1\[C@H]2C=C(C)C[C@]1(N)c1ccc(=O)[nH]c1C2 [HUPERZINE A] | 0.065 | 74 | –
